The structures appear in SMILES notation. Where “and” joins values, the source holds several entries; their conditions need not be identical. Equal values may be shown once.

Common to all, as to assay type: in vivo
The subject of assay [1] is tobacco (var Samsun) plantlets on liquid culture medium. Put plainly: HST + HPPD herbicide effects on tobacco seedlings on liquid culture medium. To be noted: for % Injury (bleaching), mesotrione by itself: 0.75% v/v DMSO, 20 DAT. The method, then: In an alternative herbicide test procedure tobacco (var Samsun) plantlets germinated aseptically in agar made up in 1/3 strength Murashige and Skoog salts medium are transferred after 4 d to float on top of 2.9 ml of sterile liquid culture medium (half strength Murashige and Skoog medium containing 30 mM sucrose) in wells of 12 well plates. Test compounds are added at various doses and bleaching damage is assessed after 14-20 DAT. The plantlets are kept covered under clear perspex and grown at 18° C. (night) and 24° C. (day) under a 1611 day (˜500-900 umol/m^2), 8 h darkness regime Plantlets continue to grow and produce new tissue over the 14-20 DAT period but are bleached and grow less in the presence of controlling concentrations of herbicide.

For assay [2], the system named is wild-type (WT) Samsun tobacco. Put plainly: Glasshouse spray test, wild-type tobacco. To be noted: for % damage observed 16 DAT: w/t tobacco. The method in brief: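 Wild-type Samsun tobacco grown from seed was planted in 3 inch pots, grown on under glasshouse conditions (about 24-27° C. day, 18-21° C. night, ~14 h photoperiod, ~65% humidity) and spray-treated alongside transgenic lines. Test chemicals were formulated in water with 0.2% X77 surfactant and applied by track sprayer at 200 l/ha. Height reduction, bleaching and damage were scored against unsprayed control plants of like size.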

Assay [3] deals with tobacco plants expressing Pseudomonas fluorescens HPPD. The assay is described as follows: Glasshouse spray test, Pseudomonas HPPD transgenic tobacco. The note with it: for % damage observed 16 DAT: Pseudomonas HPPD T1. The source says: Tobacco plants expressing the wild-type HPPD gene of Pseudomonas fluorescens strain 87-79 under operable control of the double enhanced 35S CMV promoter region, Nos3′ terminator and TMV translational enhancer were provided as detailed in Example 4 of WO0246387.
Seed of wild-type tobacco plants, C2 tobacco plants and of the T1 progeny of a further Arabidopsis-HST expressing tobacco line, D2 were planted out in 3 inch pots, grown on, sprayed with compounds 1.1, 2.30 and 3.6 at the rates shown in table 5. Percent damage scores were assessed at 7 DAT. Aside from the presumptive non-transgenic segregants the D2 line containing the Arabidopis HST expression construct offered the highest level of tolerance to the two HST herbicides with the Psuedomonas HPPD, C2 line, offering only marginal tolerance under the conditions of this test.
Transgenic lines of tobacco, soyabean and corn etc. can be engineered to express various heterologous HPPDs derived from, for example Avena (SEQ ID #26), Wheat (SEQ ID #27), Pseudomonas fluorescens (SEQ ID # 25) and Shewanella colwelliana (SEQ ID #28) as, for example, described in WO 02/46387.
Single copy events amongst the T1 plant lines are identified by their 3:1 segregation ratio (wrt kanamycin and or herbicide) and by quantitative RT-PCR. Seed from the thus selected T1 tobacco (var Samsun) lines are sown in 3 inch diameter pots containing 50% peat, 50% John Innes soil no 3. After growth to the 3 leaf stage, plants are sprayed, as described above, in order to test for herbicide tolerance relative to like-treated non-transgenic tobacco plants.
Control tobacco plants and transgenic T1 plants expressing either the Pseudomonas or the wheat HPPD gene are sprayed at 37, 111, 333 and 1000 g/ha rates of HST inhibitors and, for example, compound 2.3.
Plants are assessed and scored for % damage at 16 DAT.

Setting [4] is: WT tobacco, spray with 40 g of compound 1.1, 7 DAT.
[5] abbreviates: WT tobacco, spray with 40 g of compound 1.1, 14 DAT.

Turning to `CS(=O)(=O)c1ccc(C(=O)C2C(=O)CCCC2=O)c([N+](=O)[O-])c1` [Mesotrione, mesotrione, reference compound], in assay [1] (lower dose of mesotrione used in the mixtures), the “damage by mesotrione alone” value is given as “no visible damage”. Moreover, the “% Injury (bleaching), mesotrione by itself” value in assay [1] (mesotrione 0.0005 ppm, liquid culture) is on record as 0%; in assay [1] (mesotrione 0.001 ppm, liquid culture) it was 20%. Moreover, in assay [1] (mesotrione 0.001 ppm, 0.75% DMSO, liquid culture medium, 14 DAT), the “% bleaching, mesotrione by itself” value is recorded as 5%. Further, in assay [2] (10 g/ha, 5 DAT, wt plants), the “Damage % 5 DAT” value was 55% and 50% and 60%. Further, the “% damage observed 16 DAT” value in assay [2] (37 g/ha) worked out at 66%; in assay [2] (111 g/ha), 57%; in assay [2] (333 g/ha), 57%; in assay [2] (1000 g/ha) it was 54%; in assay [3] (37 g/ha) it was 3%; in assay [3] (111 g/ha), 3%. Further, the “% damage observed 16 DAT” value in assay [3] (333 g/ha) amounted to 43%; in assay [3] (1000 g/ha), 67%. In addition, the “percent damage at 6 DAT” value in assay [2] (100 g/ha, WT, reps) was 80% and 70%. The “ht (herbicidal damage)” value in assay [2] (WT tobacco, 15 g/ha of mesotrione, 21 DAT) was 90 and 85 and 75.

Take `Oc1c(Cl)c(F)nc(F)c1Cl` [Compound 1.1, haloxydine]: the “% bleaching, +mesotrione 0.001 ppm” value in assay [1] (0.19 ppm + mesotrione 0.001 ppm, liquid culture medium, 14 DAT) is 100%; in assay [1] (0.58 ppm + mesotrione 0.001 ppm, liquid culture medium, 14 DAT), 100%; in assay [1] (1.7 ppm + mesotrione 0.001 ppm, liquid culture medium, 14 DAT), 100%; in assay [1] (5.2 ppm + mesotrione 0.001 ppm, liquid culture medium, 14 DAT), 100%; in assay [1] (16 ppm + mesotrione 0.001 ppm, liquid culture medium, 14 DAT) it was 100%; in assay [1] (47 ppm + mesotrione 0.001 ppm, liquid culture medium, 14 DAT), 100%. In addition, the “% bleaching, HST herbicide alone” value in assay [1] (0.19 ppm, liquid culture medium, 14 DAT) was 50%; in assay [1] (0.58 ppm, liquid culture medium, 14 DAT), 90%; in assay [1] (1.7 ppm, liquid culture medium, 14 DAT), 100%; in assay [1] (5.2 ppm, liquid culture medium, 14 DAT), 100%; in assay [1] (16 ppm, liquid culture medium, 14 DAT) it was 100%; in assay [1] (47 ppm, liquid culture medium, 14 DAT), 100%. Also, in assay [1] (liquid culture, repeat experiments), the “effect of low amounts of mesotrione on the injury down the dose response” value was “clear synergistic effects”. Moreover, the “% damage at 7 DAT” value was 75% in assay [2] (25 gai/ha, WT Samsun, individual plants) and 75% in assay [3] (25 gai/ha, C2 line (Pseudomonas HPPD, T2), individual plants). Moreover, the “% damaged” value in assay [2] (250 g/ha, 8 DAT, w/t plants, 4-5 leaf) was 55% and 65%. For the same compound, the “% damage” value in assay [2] (250 g/ha, 25 DAT, w/t plants) was 50-70%. The “blch: % bleaching at the meristem relative to control plants” value in assay [2] (setting [4]) was 70% and 65% and 60% and 75% and 80%; in assay [2] (setting [5]) it was 40% and 70% and 60% and 75% and 65%. Further, the “ht: % height reduction relative to control plants” value was 60% and 65% and 75% and 70% in assay [2] (setting [4]); 60% and 70% and 75% and 65% in assay [2] (setting [5]); 70% and 80% and 85% and 60% and 55% and 65% in assay [2] (WT tobacco, spray with 40 g of compound 1.1, 21 DAT).

For the origin of these results see patent US20110173718A1, “HERBICIDE TOLERANT PLANTS” (SYNGENTA CROP PROTECTION, INC., priority 2008, published 2011).
